Laboratory results published in patent US12569498B2, “Methods and compositions for the prevention and treatment of ischemia reperfusion injury and infection” (CHILDREN'S NATIONAL MEDICAL CENTER, priority 2019, dated 2026).
Entries after “also recorded” stand apart in the source; their conditions may differ.

Assays:
[1] = system: NFKB targets (TLR4, NLRP3, Trim63, Fbxo32); assay: RT-PCR of downstream NFKB target genes after testicular torsion; type: in vivo, CD1 mice; conditions: testis, 18 hours following testicular torsion
Method: (§1) Mice underwent testicular torsion as previously described (Lysiak 2001). Briefly, mice were anesthetized with isoflurane over a heating pad. The right testis was delivered through a low scrotal incision and rotated counterclockwise 720 degrees to induce ischemia for 2 hours. […] All animals were injected with long-acting buprenorphine (0.1 mg/kg) for long-term pain control prior to being recovered from anesthesia. Mice were euthanized either 18 hours or 30 days following torsion. Mice kept for 30 days after surgery were weighed on a weekly basis.
(§2) Cytisine (Sigma-Aldrich, St. Louis, MO) was administered intraperitoneally at a dose of 0.1 μg/gram either 1 hour before torsion or 1 hour after torsion (1 hour prior to detorsion). Varenicline ([…]) was administered as an intraperitoneal injection one hour after the onset of torsion and then continued every 12 hours for a total of 4 doses.
(§3) RNA was isolated from testis tissue using RNEasy mini kit (Qiagen, Hilden, Germany) using the manufacturer's protocol. RNA concentration was measured with Nanodrop 8000 (Thermo Scientific, Waltham, MA). cDNA was synthesized using Superscript First-Strand Synthesis system for RT-PCR (Invitrogen, Carlsbad, CA) on a GeneAmp PCR System 9700 (Applied Biosystems, Foster City, CA) Real-Real-time PCR was performed using QuantStudio 7 Flex (Applied Biosystems, Foster City, CA). Software Quantstudio Real-Time PCR Software (Thermo Fisher Scientific, Waltham, MA). TaqMan Gene Expression Assays (Applied Biosystems, Foster City, CA). Standard TaqMan primers were used for Col1, Col3, Vim, SMA.
NFKB signaling results in the upregulation of several downstream targets, which propagate the inflammatory cascade. To determine if varenicline administration reduced activation of the NFKB axis, quantitative PCR of established downstream NFKB targets was performed.

[2] = system: pro-fibrotic genes Col1, Col3, Vim, SMA; assay: RT-PCR of pro-fibrotic markers in testis 30 days after torsion; type: in vivo, CD1 mice; conditions: for relative expression of collagen 1 (Col1) / relative expression of collagen 3 (Col3) / relative expression of smooth muscle actin (Sma) / relative expression of vimentin (Vim): 30 days following torsion, vs untreated
Method: as §1, §2, §3

[3] = system: IRI markers and pro-fibrotic genes in kidney after CFT073 uropathogenic Escherichia coli pyelonephritis; assay: Quantitative PCR of kidney after acute pyelonephritis (IRI markers, pro-fibrotic genes); type: in vivo, C3H/HeOuJ mice
Method: Methods: Using an established murine model, pyelonephritis was induced by inoculating the bladder of C3H/HeOuJ mice with a uropathogenic E. coli. Five days following inoculation, half of the animals were treated with 5 days of ceftriaxone and half were treated with 5 days of ceftriaxone plus varenicline in the initial 48 hours. Histology and the expression of ischemia reperfusion injury markers and pro-fibrotic genes were evaluated at 14 and 30 days following the initial infection.
(§4) To initiate pyelonephritis, the bladder was catheterized with a 24-gauge angiocatheter and a total volume of 100 μL of a phosphate-buffered saline containing […] colony forming units (CFU) of CFT073 uropathogenic Escherichia coli (UPEC) was then instilled.
[…] Real-time PCR was performed using QuantStudio 7 Flex (Applied Biosystems, Foster City, CA) with Software Quantstudio Real-Time PCR Software (Thermo Fisher Scientific, Waltham, MA) and TaqMan Gene Expression Assays (Applied Biosystems, Foster City, CA). Standard TaqMan primers were used for Complement 1 q B chain (C1qb, Mm01179619_m1), Lipocalin 2 (Lcn2, Mm01324470_m1), Serpina (Mm04213318_m1), Cathepsin S (Ctss, Mm01255859_m1), Vascular cell adhesion molecule 1 (Vcam1, Mm01320970_m1), Interleukin 1 beta (IL-1β, Mm00434228_m1), and Nitric oxide synthase 2 (Nos2, Mm00440502_m1) as short-term IRI markers and Collagen 1 (Col1, Mm00801666_g1), Collagen 3 (Col3, Mm01254476_m1), Vimentin (Vim, Mm01333430_m1), and Smooth muscle actin (Acta, Mm00725412_s1) to evaluate long-term fibrosis.

[4] = Renal scar formation and trichrome collagen quantification after acute pyelonephritis; type: in vivo, C3H/HeOuJ mice
Method: as §4
Tissues were preserved in formalin for 72 hours then stored in ethanol. Sections were cut to a 5 μm thickness and stained with H&E or Masson trichrome. Photographs were obtained at 20× resolution with Olympus VS120 virtual slide microscope system. The images were then analyzed with ImageJ Fiji software in order to quantify collagen deposition as previously described (Chen 2017). As collagen deposition would be expected as long-term sequelae of IRI, the trichrome stains of the long-term specimen were examined. All artifacts from the staining process as well as gross collecting system were cropped from these images prior to analysis. A color deconvolution plugin was used to separate the trichrome images into the separate colors. Analysis was performed based upon the percentage of deposition of collagen in the green image compared to the overall area of the kidneys.
Tissues harvested 21 days following completion of antibiotic therapy were subjected to trichome staining to assess for global collagen deposition. After removing artifacts (to ensure only parenchyma was included in the analysis), a color deconvolution plugin was used for ImageJ to divide the images into the respective three colors of the trichrome stain. A threshold was set and collagen was quantified as a percentage of green color in respect to the area of the entire kidney (FIG. 13).

α4β2nAChR = α4β2nAChR (Homo sapiens, UniProt P17787+P43681); conditions: systemic concentrations found with routine oral dosing in humans (Campling 2013); cited from earlier work
[5] = mice (Obach 2006); cited from earlier work
α7nAChR = α7nAChR (Homo sapiens, UniProt P36544); conditions: peak concentrations in smokers / levels with therapeutic dosing in humans (Campling 2013); cited from earlier work
α7nAChR, sequence (P36544 23-502): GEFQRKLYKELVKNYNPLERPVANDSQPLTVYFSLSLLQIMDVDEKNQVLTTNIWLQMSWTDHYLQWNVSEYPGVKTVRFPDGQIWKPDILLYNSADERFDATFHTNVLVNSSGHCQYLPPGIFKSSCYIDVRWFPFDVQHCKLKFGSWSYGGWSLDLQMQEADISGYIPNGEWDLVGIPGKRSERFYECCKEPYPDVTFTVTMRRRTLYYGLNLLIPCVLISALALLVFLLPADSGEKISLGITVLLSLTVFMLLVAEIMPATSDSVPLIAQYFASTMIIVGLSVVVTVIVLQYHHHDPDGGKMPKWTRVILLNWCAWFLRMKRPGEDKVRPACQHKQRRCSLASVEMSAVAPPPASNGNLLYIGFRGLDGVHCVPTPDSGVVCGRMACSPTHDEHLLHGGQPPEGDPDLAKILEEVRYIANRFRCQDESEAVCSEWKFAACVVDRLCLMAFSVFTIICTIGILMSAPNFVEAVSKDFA

α4β2nAChR, sequence (P43681 29-627 limits assumed): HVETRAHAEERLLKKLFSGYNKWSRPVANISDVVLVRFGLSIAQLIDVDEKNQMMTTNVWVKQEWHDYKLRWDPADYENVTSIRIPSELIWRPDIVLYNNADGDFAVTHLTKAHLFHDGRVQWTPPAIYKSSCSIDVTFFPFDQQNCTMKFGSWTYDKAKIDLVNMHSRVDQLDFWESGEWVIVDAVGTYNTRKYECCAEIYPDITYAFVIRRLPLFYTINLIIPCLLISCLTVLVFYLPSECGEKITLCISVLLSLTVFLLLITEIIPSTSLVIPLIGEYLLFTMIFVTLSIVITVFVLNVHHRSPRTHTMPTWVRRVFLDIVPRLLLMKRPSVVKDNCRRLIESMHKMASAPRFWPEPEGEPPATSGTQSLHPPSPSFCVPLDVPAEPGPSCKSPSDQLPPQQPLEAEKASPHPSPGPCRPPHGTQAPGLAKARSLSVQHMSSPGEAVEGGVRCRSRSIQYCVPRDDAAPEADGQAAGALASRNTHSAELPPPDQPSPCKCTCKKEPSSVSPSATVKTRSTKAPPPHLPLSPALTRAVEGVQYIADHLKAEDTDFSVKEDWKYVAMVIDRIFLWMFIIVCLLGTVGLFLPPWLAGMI
α4β2nAChR, sequence (P17787 26-502): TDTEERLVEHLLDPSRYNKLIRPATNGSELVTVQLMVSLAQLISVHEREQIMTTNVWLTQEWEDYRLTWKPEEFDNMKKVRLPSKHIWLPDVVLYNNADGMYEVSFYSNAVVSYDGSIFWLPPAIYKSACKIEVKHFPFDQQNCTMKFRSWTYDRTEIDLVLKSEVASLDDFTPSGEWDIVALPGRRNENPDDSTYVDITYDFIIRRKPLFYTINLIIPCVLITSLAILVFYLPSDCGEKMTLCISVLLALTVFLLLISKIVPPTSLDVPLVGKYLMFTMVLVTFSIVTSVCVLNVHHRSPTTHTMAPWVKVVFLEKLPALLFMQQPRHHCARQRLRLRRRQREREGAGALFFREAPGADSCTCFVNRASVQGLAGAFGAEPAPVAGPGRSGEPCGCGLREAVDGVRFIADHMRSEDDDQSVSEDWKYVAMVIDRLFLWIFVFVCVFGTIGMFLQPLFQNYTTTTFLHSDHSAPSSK

c1cnc2cc3c(cc2n1)C1CNCC3C1 [varenicline, 7,8,9, 10-tetrahydro-6, 10-methano-6H-pyrazino[2,3-h][3]benzazepine]
expression of Fbxo32 ([1]; p<0.0001): significantly decreased the expression
expression of TLR4 ([1]; p<0.01): significantly decreased the expression
expression of NLRP3 ([1]; p<0.05): significantly decreased the expression
expression of Trim63 ([1]; p≤0.034): significantly decreased the expression
relative expression of collagen 1 (Col1) [2]: reduced the expression; also recorded: significantly decreased
relative expression of collagen 3 (Col3) [2]: reduced the expression; also recorded: significantly decreased
relative expression of smooth muscle actin (Sma) [2]: reduced the expression; also recorded: significantly decreased
relative expression of vimentin (Vim) [2]: reduced the expression; also recorded: significantly decreased
relative expression of collagen 1 (Col1) ([2]; listed as Varenicline): significantly decreased
relative expression of collagen 3 (Col3) ([2]; listed as Varenicline): significantly decreased
relative expression of smooth muscle actin (Sma) ([2]; listed as Varenicline): significantly decreased
relative expression of vimentin (Vim) ([2]; listed as Varenicline): significantly decreased
expression of pro-fibrotic genes / genetic markers of testicular fibrosis ([2]; long term (30 day) outcome, genes not itemised): decreased histologic and genetic markers of testicular fibrosis
expression of established mediators (markers) of renal ischemia reperfusion injury ([3]; 14 days after inoculation, 5 days after completion of antibiotics, varenicline 1 mg/kg i.p. twice daily first 48 hours plus ceftriaxone vs ceftriaxone alone, difference not statistically significant): decreased expression of IRI markers
expression of pro-fibrotic genes (Col1, Col3, acta, vimentin) in kidney ([3]; 30 days following inoculation, 21 days after completion of antibiotics, varenicline plus ceftriaxone vs ceftriaxone alone): trend towards a decreased expression of pro-fibrotic genes; also recorded: long-term decrease; also recorded: decrease in expression of genes responsible for renal fibrosis
expression of vimentin in kidney ([3]; kidneys at 30 days, p-value of 0.03): Decrease in expression of vimentin
collagen deposition in the kidneys (percentage of green pigment per area of entire kidney) ([4]; 21 days following completion of antibiotic therapy, varenicline plus ceftriaxone vs ceftriaxone alone, p=0.001): significantly lower amount of collagen deposition; also recorded: long-term decrease in collagen deposition
incidence of renal scar formation and renal atrophy ([4]; 30 days following acute pyelonephritis, preliminary results): decreased
α4β2nAChR agonism (α4β2nAChR): strong α4β2nAChR and α7nAChR agonist
half-life [5]: 1.4 h
activation of α7nAChR at clinically reached concentrations (α7nAChR): α7nAChR agonist at concentrations found with therapeutic dosing in humans; also recorded: strong α4β2nAChR and α7nAChR agonist
